Results as given in US20250313533A1, “QUINOLINE CARBOXYLIC ACID ESTER COMPOUND AND PREPARATION METHOD AND USE THEREOF” (priority 2019, published 2025).

Columns and labels:
[1] = test system: fruit blotch in watermelons; experiment: whole plant or invertebrate; conditions: read-out: efficacy against fruit blotch in watermelons
bacterial blight in rice = experiment: whole plant or invertebrate; conditions: Oryza sativa, read-out: efficacy against bacterial blight in rice
[2] = test system: pathogenic bacteria causing black rot in Chinese cabbages; experiment: In vitro bactericidal activity, black rot in Chinese cabbages; type: cell-based, xanthomonas; conditions: Xanthomonas, read-out: inhibitory rate; for inhibition at 1 ppm: dosage 1 ppm; for inhibition at 5 ppm: dosage 5 ppm
black shank in potatoes = experiment: Living crops in vivo protective activity, potatoes (root irrigation); conditions: Solanum tuberosum, read-out: efficacy against black shank in potatoes; for pest or weed control at 5 ppm: dosage 5 ppm; for pest or weed control at 10 ppm: dosage 10 ppm
Protocol: Root irrigation was carried out on the potatoes for tests according to the designed concentration of the agents. The dosage for each plant was 200 mL and was kept consistent (also for the control). The black shank bacteria were inoculated on the second day after the application. The results were investigated according to the disease condition.

[3] = test system: bacterial wilt in tobacco; experiment: whole plant or invertebrate; conditions: Nicotiana tabacum, read-out: efficacy against bacterial wilt in tobacco
[4] = test system: pathogenic bacteria causing bacterial blight in rice; experiment: whole plant or invertebrate; type: cell-based, xanthomonas; conditions: read-out: inhibitory rate
[5] = test system: pathogenic bacteria causing fire blight in pears; experiment: In vitro bactericidal activity, fire blight in pears; type: cell-based, erwinia; conditions: Erwinia, read-out: inhibitory rate; for inhibition at 1 ppm: dosage 1 ppm; for inhibition at 5 ppm: dosage 5 ppm
[6] = test system: pathogenic bacteria causing bacterial wilt in tobacco; experiment: whole plant or invertebrate; type: cell-based, ralstonia; conditions: read-out: inhibitory rate
cucumber seedlings = experiment: Safety for plant growth after application; type: in vivo; conditions: dosage 200 ppm
Summary of the method: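 Using pot-grown cucumber seedlings indoors, we recorded plant height growth rate together with chlorophyll content and leaf area following compound application.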

[7] = test system: stem rot in sweet potatoes; experiment: whole plant or invertebrate; conditions: read-out: efficacy against stem rot in sweet potatoes
[8] = test system: indoor potted cucumber seedlings; experiment: Effect of improving growth and development of crops; type: in vivo; design: Rate of growth rate increase (%): concentration or dose not given beside the values; conditions: versus blank control; for Rate of chlorophyll content increase (%) / Rate of leaf area increase (%): 14 days after application; for Rate of growth rate increase (%): plant height 14 days after application; for Rate of leaf area increase (%): second leaf
Summary of the method: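 Pot-grown seedlings kept indoors; height plus second-leaf length (base to tip) and width (upper shoulder) taken pre-treatment and at day 14. Derived: growth-rate increase %, leaf area gain, SPAD chlorophyll gain.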

[9] = test system: pathogenic bacteria causing bacterial wilt in cassava; experiment: organism not typed; type: cell-based; conditions: read-out: inhibitory rate
[10] = test system: soft rot in Chinese cabbages; experiment: whole plant or invertebrate; conditions: 48 h, read-out: efficacy against soft rot in Chinese cabbages
[11] = test system: pathogenic bacteria causing black shank in potatoes; experiment: In vitro bactericidal activity, black shank in potatoes; type: cell-based; conditions: read-out: inhibitory rate; for inhibition at 1 ppm: dosage 1 ppm; for inhibition at 5 ppm: dosage 5 ppm
[12] = test system: pathogenic bacteria causing bacterial angular leaf spot in cucumbers; experiment: In vitro bactericidal activity, bacterial angular leaf spot in cucumbers; type: cell-based, pseudomonas; conditions: read-out: inhibitory rate; for inhibition at 1 ppm: dosage 1 ppm; for inhibition at 5 ppm: dosage 5 ppm
[13] = test system: pathogenic bacteria causing fruit blotch in watermelons; experiment: In vitro bactericidal activity, fruit blotch in watermelons; type: cell-based, acidovorax; conditions: read-out: inhibitory rate; for inhibition at 1 ppm: dosage 1 ppm; for inhibition at 5 ppm: dosage 5 ppm
[14] = test system: pathogenic bacteria causing stem rot in sweet potatoes; experiment: In vitro bactericidal activity, stem rot in sweet potatoes; type: cell-based, dikia; conditions: read-out: inhibitory rate; for inhibition at 1 ppm: dosage 1 ppm; for inhibition at 5 ppm: dosage 5 ppm

Compound	pest or weed control at 5 ppm [1]	pest or weed control at 10 ppm [1]	pest or weed control at 5 ppm (bacterial blight in rice)	pest or weed control at 10 ppm (bacterial blight in rice)	inhibition at 1 ppm [2]	inhibition at 5 ppm [2]	pest or weed control at 5 ppm (black shank in potatoes)	pest or weed control at 10 ppm (black shank in potatoes)	pest or weed control at 5 ppm [3]	pest or weed control at 10 ppm [3]	inhibition at 1 ppm [4]	inhibition at 5 ppm [4]	inhibition at 1 ppm [5]	inhibition at 5 ppm [5]	inhibition at 1 ppm [6]	inhibition at 5 ppm [6]	safety for plant growth (discoloration, necrosis, wilt, malformation) (cucumber seedlings)	pest or weed control at 5 ppm [7]	pest or weed control at 10 ppm [7]	Rate of chlorophyll content increase (%) [8]	other results
CN(C)c1cc2c(cc1F)c(=O)c(C(=O)OCCO)cn2C1CC1 [Compound 413]	≥ 90%	≥ 90%	≥ 90%	≥ 90%	≥ 90%	≥ 90%	≥ 90%	≥ 90%	≥ 90%	≥ 90%	≥ 90%	≥ 90%	≥ 90%	≥ 90%	≥ 90%	≥ 90%	safe for plant growth	≥ 90%	≥ 90%	13%	Rate of growth rate increase (%) [8]: 15%; Rate of leaf area increase (%) [8]: 16%; inhibition at 1 ppm [9]: ≥ 90%; inhibition at 5 ppm [9]: ≥ 90%; pest or weed control at 5 ppm [10]: ≥ 90%; pest or weed control at 10 ppm [10]: ≥ 90%; inhibition at 1 ppm [11]: ≥ 90%; inhibition at 5 ppm [11]: ≥ 90%; inhibition at 1 ppm [12]: ≥ 90%; inhibition at 5 ppm [12]: ≥ 90%; inhibition at 1 ppm [13]: ≥ 90%; inhibition at 5 ppm [13]: ≥ 90%; inhibition at 1 ppm [14]: ≥ 90%; inhibition at 5 ppm [14]: ≥ 90%
O=C(OCCO)c1cn(C2CC2)c2cc(OCC(F)(F)F)c(F)cc2c1=O [Compound 275]	≥ 90%	≥ 90%	≥ 90%	≥ 90%	≥ 90%	≥ 90%	≥ 90%	≥ 90%	≥ 90%	≥ 90%	≥ 90%	≥ 90%	≥ 90%	≥ 90%	≥ 90%	≥ 90%	safe for plant growth	≥ 90%	≥ 90%	13%	Rate of growth rate increase (%) [8]: 12%; Rate of leaf area increase (%) [8]: 11%; inhibition at 1 ppm [9]: ≥ 90%; inhibition at 5 ppm [9]: ≥ 90%; pest or weed control at 5 ppm [10]: ≥ 90%; pest or weed control at 10 ppm [10]: ≥ 90%; inhibition at 1 ppm [11]: ≥ 90%; inhibition at 5 ppm [11]: ≥ 90%; inhibition at 1 ppm [12]: ≥ 90%; inhibition at 5 ppm [12]: ≥ 90%; inhibition at 1 ppm [13]: ≥ 90%; inhibition at 5 ppm [13]: ≥ 90%; inhibition at 1 ppm [14]: ≥ 90%; inhibition at 5 ppm [14]: ≥ 90%
COCCCOC(=O)c1cn(C2CC2)c2cc(F)ccc2c1=O [Compound 208]	≥ 90%	≥ 90%	≥ 90%	≥ 90%	≥ 90%	≥ 90%	≥ 90%	≥ 90%	≥ 90%	≥ 90%	≥ 90%	≥ 90%	≥ 90%	≥ 90%	≥ 90%	≥ 90%	safe for plant growth	≥ 90%	≥ 90%	12%	Rate of growth rate increase (%) [8]: 5%; Rate of leaf area increase (%) [8]: 11%; inhibition at 1 ppm [9]: ≥ 90%; inhibition at 5 ppm [9]: ≥ 90%; pest or weed control at 5 ppm [10]: ≥ 90%; pest or weed control at 10 ppm [10]: ≥ 90%; inhibition at 1 ppm [11]: ≥ 90%; inhibition at 5 ppm [11]: ≥ 90%; inhibition at 1 ppm [12]: ≥ 90%; inhibition at 5 ppm [12]: ≥ 90%; inhibition at 1 ppm [13]: ≥ 90%; inhibition at 5 ppm [13]: ≥ 90%; inhibition at 1 ppm [14]: ≥ 90%; inhibition at 5 ppm [14]: ≥ 90%
CCNc1cc2c(cc1F)c(=O)c(C(=O)OCCO)cn2C1CC1 [Compound 407]	≥ 90%	≥ 90%	≥ 90%	≥ 90%	≥ 90%	≥ 90%	≥ 90%	≥ 90%	≥ 90%	≥ 90%	≥ 90%	≥ 90%	≥ 90%	≥ 90%	≥ 90%	≥ 90%	safe for plant growth	≥ 90%	≥ 90%	15%	Rate of growth rate increase (%) [8]: 13%; Rate of leaf area increase (%) [8]: 11%; inhibition at 1 ppm [9]: ≥ 90%; inhibition at 5 ppm [9]: ≥ 90%; pest or weed control at 5 ppm [10]: ≥ 90%; pest or weed control at 10 ppm [10]: ≥ 90%; inhibition at 1 ppm [11]: ≥ 90%; inhibition at 5 ppm [11]: ≥ 90%; inhibition at 1 ppm [12]: ≥ 90%; inhibition at 5 ppm [12]: ≥ 90%; inhibition at 1 ppm [13]: ≥ 90%; inhibition at 5 ppm [13]: ≥ 90%; inhibition at 1 ppm [14]: ≥ 90%; inhibition at 5 ppm [14]: ≥ 90%
